Literature values in patent publication US20250170254A1, “Subdermal Implant for Sustained Drug Delivery” (OAK CREST INSTITUTE OF SCIENCE, priority 2022, published 2025).

How the values were obtained:
[1] = system: HIV-1
[2] = in vivo
[3] = system: HIV-1; conditions: MDTG versus DTG
[4] = system: HIV-1; conditions: long-acting injectable formulation
[5] = 600 mg every 8 weeks, intramuscular long-acting formulation
[6] = system: HIV; conditions: four times the protein adjusted IC90 from non-human primate efficacy studies

C[C@@H]1CCO[C@H]2Cn3cc(C(=O)NCc4ccc(F)cc4F)c(=O)c(O)c3C(=O)N12 [DTG, dolutegravir]
IC50 ([1]; in vitro against HIV-1, PBMCs, read-out: IC50 in peripheral blood mononuclear cells (PBMCs)): 0.51 nM
protein-adjusted IC90 (PA-IC90) ([1]; in vitro against HIV-1, protein-adjusted, mass units): 0.064 µg/mL
IC90 ([1]; in vitro against HIV-1, protein-adjusted, read-out: protein-adjusted IC90 (PA-IC90)): 150 nM
systemic half-life [2]: 12 to 15 h

CCCCCCCCCCCCCC(=O)Oc1c2n(cc(C(=O)NCc3ccc(F)cc3F)c1=O)C[C@@H]1OCC[C@@H](C)N1C2=O [MDTG]
IC50 against HIV-1 compared with DTG [3]: not statistically different

C[C@H]1CO[C@@H]2Cn3cc(C(=O)NCc4ccc(F)cc4F)c(=O)c(O)c3C(=O)N12 [CAB, cabotegravir]
efficacy versus daily oral TDF-FTC in prevention of HIV-1 [4]: superiority
participants with trough concentrations above 1×PA-IC90 [5]: ≥ 95%
participants with trough concentrations above 4×PA-IC90 [5]: ≥ 80%
target steady state plasma concentration (four times PA-IC90) [6]: 0.66 µg/mL
